# Legend:
# rat mGlu5 = rat mGlu5 (Rattus norvegicus, UniProt P31424); assay: calcium mobilization PAM assay, high-expressing rat mGlu5 HTS cell line; assay type: cell-based; conditions: for mGlu5 PAM activity: rat mGlu5, high expressing rat cell line; for % Glu Max (rmGlu5): rat mGlu5 cell line; for allosteric agonist activity: rat mGlu5 (ago-PAM)
# human mGlu5 = human mGlu5 (Homo sapiens, UniProt P41594); assay: PAM assay in lower expressing human mGlu5 cell line; assay type: cell-based
# mGlu5 MPEP site = mGlu5 MPEP site (Rattus norvegicus, UniProt P31424); assay: [3H]-methoxyPEPy radioligand displacement; assay type: binding
# mGlu5 MPEP site, sequence (P31424 21-1203): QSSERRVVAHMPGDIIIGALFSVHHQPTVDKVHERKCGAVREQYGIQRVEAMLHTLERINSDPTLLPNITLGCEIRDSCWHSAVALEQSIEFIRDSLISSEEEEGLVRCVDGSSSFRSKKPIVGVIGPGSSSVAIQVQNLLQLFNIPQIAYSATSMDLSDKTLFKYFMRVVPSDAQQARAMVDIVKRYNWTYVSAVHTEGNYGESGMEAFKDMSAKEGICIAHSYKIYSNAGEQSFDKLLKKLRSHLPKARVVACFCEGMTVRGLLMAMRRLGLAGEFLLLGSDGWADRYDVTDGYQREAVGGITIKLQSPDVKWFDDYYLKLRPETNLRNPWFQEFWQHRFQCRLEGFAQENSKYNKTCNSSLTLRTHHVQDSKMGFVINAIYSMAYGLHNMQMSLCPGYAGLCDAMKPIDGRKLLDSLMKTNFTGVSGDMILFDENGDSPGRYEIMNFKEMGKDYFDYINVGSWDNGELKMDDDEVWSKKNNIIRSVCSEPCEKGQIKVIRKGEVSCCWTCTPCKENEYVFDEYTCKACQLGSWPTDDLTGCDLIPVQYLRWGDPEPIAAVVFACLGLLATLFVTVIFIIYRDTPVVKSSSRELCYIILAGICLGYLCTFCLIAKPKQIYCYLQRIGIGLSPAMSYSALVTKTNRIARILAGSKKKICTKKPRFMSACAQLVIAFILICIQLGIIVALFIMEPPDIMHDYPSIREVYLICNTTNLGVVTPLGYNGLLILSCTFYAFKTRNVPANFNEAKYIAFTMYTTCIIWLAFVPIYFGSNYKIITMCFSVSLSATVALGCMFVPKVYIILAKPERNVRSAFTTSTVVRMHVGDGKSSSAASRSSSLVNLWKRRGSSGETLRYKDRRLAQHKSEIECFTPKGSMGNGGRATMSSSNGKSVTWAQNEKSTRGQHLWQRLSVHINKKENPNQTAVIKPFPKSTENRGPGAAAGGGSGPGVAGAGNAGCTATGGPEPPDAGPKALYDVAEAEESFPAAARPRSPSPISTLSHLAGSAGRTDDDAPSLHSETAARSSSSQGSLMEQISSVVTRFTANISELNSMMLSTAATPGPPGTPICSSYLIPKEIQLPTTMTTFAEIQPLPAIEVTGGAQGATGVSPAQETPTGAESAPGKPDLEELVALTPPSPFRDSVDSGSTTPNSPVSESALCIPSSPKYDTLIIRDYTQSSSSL
# [1] = rat plasma protein binding; assay type: in vitro ADME
# [2] = human plasma protein binding; assay type: in vitro ADME
# [3] = tested on: 68 GPCRs, ion channels and transporters; assay: Ricerca radioligand binding panel; conditions: at 10 μM; 68 targets
# Ca = assay: cardiovascular safety ion channel panel, Ca; assay type: biochemical; conditions: read-out: IC50 Ca; functional activity
# Na = assay: cardiovascular safety ion channel panel, Na; assay type: biochemical; conditions: read-out: IC50 Na; functional activity
# [4] = membranes isolated from rmGlu5, up to 30 μM compound
# rat mGlu5, sequence (P31424 21-1203): as above
# human mGlu5, sequence (P41594 21-1212): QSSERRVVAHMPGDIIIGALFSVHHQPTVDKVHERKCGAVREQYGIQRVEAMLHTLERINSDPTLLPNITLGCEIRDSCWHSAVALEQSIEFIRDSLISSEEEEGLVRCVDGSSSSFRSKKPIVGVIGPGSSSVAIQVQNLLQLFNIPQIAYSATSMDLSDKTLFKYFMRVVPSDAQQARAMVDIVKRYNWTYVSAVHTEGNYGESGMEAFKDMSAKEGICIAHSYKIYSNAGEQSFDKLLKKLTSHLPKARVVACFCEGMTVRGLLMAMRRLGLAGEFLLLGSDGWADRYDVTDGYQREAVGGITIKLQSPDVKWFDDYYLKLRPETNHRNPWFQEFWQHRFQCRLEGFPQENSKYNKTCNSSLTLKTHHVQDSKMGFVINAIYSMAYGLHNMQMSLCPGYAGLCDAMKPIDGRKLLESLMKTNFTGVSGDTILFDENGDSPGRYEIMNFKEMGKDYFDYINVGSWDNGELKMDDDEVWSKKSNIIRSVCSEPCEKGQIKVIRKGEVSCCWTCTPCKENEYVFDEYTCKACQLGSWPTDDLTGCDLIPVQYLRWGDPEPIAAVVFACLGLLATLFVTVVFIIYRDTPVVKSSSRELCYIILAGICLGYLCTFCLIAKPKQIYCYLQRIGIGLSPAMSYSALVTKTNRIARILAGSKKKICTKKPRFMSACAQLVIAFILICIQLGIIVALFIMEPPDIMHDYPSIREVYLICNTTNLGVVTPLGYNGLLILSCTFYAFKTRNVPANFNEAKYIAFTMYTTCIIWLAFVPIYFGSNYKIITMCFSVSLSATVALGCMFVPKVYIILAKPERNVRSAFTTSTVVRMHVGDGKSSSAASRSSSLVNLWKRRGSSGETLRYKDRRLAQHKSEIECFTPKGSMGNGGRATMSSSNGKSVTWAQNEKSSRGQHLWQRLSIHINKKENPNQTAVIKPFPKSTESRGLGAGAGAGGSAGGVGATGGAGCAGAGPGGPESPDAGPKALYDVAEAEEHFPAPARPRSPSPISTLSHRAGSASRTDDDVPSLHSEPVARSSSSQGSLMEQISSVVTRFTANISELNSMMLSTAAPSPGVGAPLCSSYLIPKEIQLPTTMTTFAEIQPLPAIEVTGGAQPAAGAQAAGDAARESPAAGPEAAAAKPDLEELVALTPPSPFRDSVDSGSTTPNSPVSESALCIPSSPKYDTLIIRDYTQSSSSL
structure (smiles),measurement,setting,value
CS(=O)(=O)N(CC(=O)NCC1CC1)c1cc(C(F)(F)F)ccc1Cl [compound 24],mGlu5 PAM activity,rat mGlu5,moderately potent
same,mGlu5 PAM activity,human mGlu5,moderately potent
same,displacement of [3H]-methoxyPEPy,mGlu5 MPEP site; in words,did not displace
same,plasma protein binding,[1],significantly reduced
same,plasma protein binding,[2],significantly reduced
same,inhibition in Ricerca radioligand binding panel,[3],< 50 % inhibition
same,IC50,Ca,> 10 µM
same,IC50,Na,> 10 µM
CS(=O)(=O)N(CC(=O)Nc1ccc(F)cn1)c1ccccc1Cl [15b],% Glu Max (rmGlu5),rat mGlu5,66 % Glu Max
CS(=O)(=O)N(CC(=O)Nc1ccccc1)c1ccccc1Cl [15a],allosteric agonist activity,rat mGlu5,strong allosteric agonist activity
same,% Glu Max (rmGlu5),rat mGlu5,61 % Glu Max
same,% Glu Max (hmGlU5),human mGlu5,77 % Glu Max
CS(=O)(=O)N(CC(=O)Nc1cccnc1F)c1ccccc1Cl [15c],% Glu Max (rmGlu5),rat mGlu5,64 % Glu Max
same,% Glu Max (hmGlU5),human mGlu5,42 % Glu Max
O=S(=O)(c1ccc(C#Cc2cccc(F)c2)cc1)N1CCOCC1 [compound 25],mGlu5 PAM activity,rat mGlu5,weak to moderately active PAMs
same,displacement of [3H]-methoxyPEPy,mGlu5 MPEP site; [4],no displacement
O=S(=O)(c1ccc(F)cc1)N1CCC[C@H](c2nc(-c3ccc(F)cc3)no2)C1 [compound 26],mGlu5 PAM activity,rat mGlu5,weak to moderately active PAMs
same,mGlu5 PAM activity,human mGlu5,weak PAM
same,displacement of [3H]-methoxyPEPy,mGlu5 MPEP site; [4],no displacement
CS(=O)(=O)N(CC(=O)Nc1cccc(Cl)c1)c1ccccc1Cl [compound 9],EC50,rat mGlu5,98 nM
same,allosteric agonist activity,rat mGlu5,strong allosteric agonist activity
same,fold shift,"rat mGlu5; rat mGlu5, value for 15a estimated because of agonist activity",7.9 fold
same,% Glu Max (rmGlu5),rat mGlu5,74 % Glu Max
same,% Glu Max (hmGlU5),human mGlu5,63 % Glu Max
